Experiments:
S. aureus ATCC 25923 = assay: Phototoxicity test c.2) (BlueV light source, emission maximum approx. 420 nm, CFU count); type: cell-based, Staphylococcus aureus; conditions: Staphylococcus aureus, ATCC25923, light or radiation study, 5 min, irradiation 5 minutes, approx. 420 nm, 17.5 mW/cm^2, 5.3 J/cm^2, vs reference control; for log reduction at 10 µM: read-out: Effectiveness against S. aureus: Reduction in CFU in log10 at concentration of 10 μM; for log reduction at 50 µM: read-out: Effectiveness against S. aureus: Reduction in CFU in log10 at concentration of 50 μM
Method: A sample of the bacterial cell Staphylococcus. aureus (ATCC number: 25923) or Escherichia. coli (ATCC number: 25922) was removed from a cryo-freeze culture and cultured under aerobic conditions at 37° C. and 175 rpm overnight in an orbital shaker (MAXQ4000, Thermo Scientific, Dubuque, Iowa, USA). Growth was carried out in 20 mL Todd-Hewitt broth (Carl Roth, Karlsruhe, Germany) supplemented with 0.3% of yeast extract (AppliChem, Darmstadt, Germany). In a second experiment, the photosensitizers (PS) used were dissolved in Millipore water and adjusted to various concentrations. 25 μL of a bacterial suspension grown overnight ( 108/mL) was incubated with 25 μL of photosensitizer solution of the various concentrations at room temperature for 10 seconds in darkness in a 96-well plate. Next, the suspension was irradiated for 5-20 minutes. For the irradiation, the light source BlueV from […], Germany) was used, which emits light from 380 to 480 nm (emission maximum at approximately 420 nm). The applied energy density was 17.5 mW/cm^2. Each experiment was accompanied by three controls in order to exclude side effect of the irradiation/photosensitizer (PS) on the survival of the bacteria: (i) no PS, only light (=light control), (ii) no light, only PS (=dark control) and (iii) neither light nor PS (=reference control). […] All of the tests were carried out four times. […] All of the remaining PS were tested against S. aureus ATCC 25923 (FIGS. 24-33). FIGS. 21-33 show the logarithmic reduction after illumination with respect to the reference control. […] The irradiation period was 5 minutes (emission maximum at approximately 420 nm) for an applied intensity of 17.5 mW/cm^2, i.e. an applied light energy (dosage) of 5.3 J/cm^2. The average reference control (arithmetic mean with standard deviation) (no light, no PS) was 3.9×10^8/mL. The logarithmic reduction after illumination is shown with respect to the reference control.

E. coli ATCC 25922 = assay: as above; type: cell-based, Escherichia coli; conditions: light dose 15.7 J/cm^2, approx. 420 nm, 15 min at 17.5 mW/cm^2, vs reference control
Method: A sample of the bacterial cell Staphylococcus. aureus (ATCC number: 25923) or Escherichia. coli (ATCC number: 25922) was removed from a cryo-freeze culture and cultured under aerobic conditions at 37° C. and 175 rpm overnight in an orbital shaker (MAXQ4000, Thermo Scientific, Dubuque, Iowa, USA). Growth was carried out in 20 mL Todd-Hewitt broth (Carl Roth, Karlsruhe, Germany) supplemented with 0.3% of yeast extract (AppliChem, Darmstadt, Germany).
In a second experiment, the photosensitizers (PS) used were dissolved in Millipore water and adjusted to various concentrations. 25 μL of a bacterial suspension grown overnight (˜108/mL) was incubated with 25 μL of photosensitizer solution of the various concentrations at room temperature for 10 seconds in darkness in a 96-well plate.
Next, the suspension was irradiated for 5-20 minutes. For the irradiation, the light source BlueV from Waldmann (Villingen-Schwenningen, Germany) was used, which emits light from 380 to 480 nm (emission maximum at approximately 420 nm). The applied energy density was 17.5 mW/cm^2.
Each experiment was accompanied by three controls in order to exclude side effect of the irradiation/photosensitizer (PS) on the survival of the bacteria: (i) no PS, only light (=light control), (ii) no light, only PS (=dark control) and (iii) neither light nor PS (=reference control). The determination of the colony forming units (CFU) per mL was also carried out in accordance with the method published by Miles, Misra and Irwin described above in section c.1). All of the tests were carried out four times.
The photosensitizers (PS) SACUR-01a, SACUR-03 and SACUR-07 were tested against the bacterial strains S. aureus ATCC 25923 and E. coli ATCC 25922 (FIGS. 21-23). All of the remaining PS were tested against S. aureus ATCC 25923 (FIGS. 24-33). FIGS. 21-33 show the logarithmic reduction after illumination with respect to the reference control.
The average reference control (arithmetic mean with standard deviation) (no light, no PS) was 3.6×10^8/mL for E. coli. The logarithmic reduction after illumination is shown with respect to the reference control.

**Q.** Which results are given for `Cl.Cl.Cl.Cl.NCCOc1ccc(/C=C/C(=O)CC(=O)/C=C/c2ccc(OCCN)c(OCCN)c2)cc1OCCN` [Curcumin 03 hydrochloride]?
**A.** log reduction at 10 µM (S. aureus ATCC 25923): > 4; log reduction at 50 µM (S. aureus ATCC 25923): > 5; Effectiveness against E. Coli: Reduction in CFU in log10 at concentration of 10 μM (E. coli ATCC 25922): >4 log10; Effectiveness against E. Coli: Reduction in CFU in log10 at concentration of 50 μM (E. coli ATCC 25922): >5 log10

**Q.** How did the log reduction at 10 µM (S. aureus ATCC 25923) turn out when `COc1cc(/C=C/C(=O)CC(=O)/C=C/c2ccc(OCCN)c(OC)c2)ccc1OCCN.Cl.Cl` [Curcumin 01a hydrochloride] was run?
**A.** The log reduction at 10 µM was over 3.

**Q.** And the log reduction at 50 µM (S. aureus ATCC 25923)?
**A.** The log reduction at 50 µM was over 5.

**Q.** And the “Effectiveness against E. Coli: Reduction in CFU in log10 at concentration of 10 μM” value (E. coli ATCC 25922)?
**A.** Its value is over 4 log10.

**Q.** And the “Effectiveness against E. Coli: Reduction in CFU in log10 at concentration of 50 μM” value (E. coli ATCC 25922)?
**A.** The value was over 5 log10.

From patent publication US11191855B2, “1,7-diaryl-1,6-heptadiene-3,5-dione derivatives, methods for the production and use thereof” (UNIVERSITÄTSKLINIKUM REGENSBURG, priority 2015, dated 2021)
